Results on one molecule are retold here after patent publication US20210283099A1, “CDC7 KINASE INHIBITORS AND USES THEREOF” (SLOAN-KETTERING INSTITUTE FOR CANCER RESEARCH, priority 2010, published 2021).

In this test the test system is HeLa cells. The test is described as follows: S phase checkpoint western blot analysis. Conditions: SDS-PAGE and western blot. The format is cell-based, human. As to the method: FIG. 15. […] HeLa cells were incubated in the presence of granaticin A or carrier control (DMSO) for the indicated times and whole cell extracts were subjected to SDS-PAGE and western blot analysis. Asyn=asynchronously growing HeLa cells. HU=HeLa cells exposed to hydroxyurea for the indicated time. HU was used as a control for DNA damaging agent that is known to […] the DNA damage checkpoint response. Again, we observed that Mcm2 mobility is shifted in the cells treated with granaticin A. MCM2 mobility is not affected by HU. Activation of the DNA damage/replication checkpoint correlates with ATM/ATR dependent phosphorylation of Chk1 at Ser345.
For orientation: In western blotting, separated proteins are transferred to a membrane and probed.

Take `NC(=O)NO` [HU, hydroxyurea, reference compound]: the Mcm2 mobility entry is reported as “not affected”.
